Here are results for 15 compounds from PubChem BioAssay (NCI).

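In this assay, cells in 96-well plates receive the compound at five concentrations for 48 hours. Endpoints are linearly interpolated between the surrounding concentrations. The concentration for 50% growth inhibition is given as GI50. Definition used: TGI = concentration required for complete inhibition of growth.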 A value given as a limit tells only on which side of the number the result lay.

Holding throughout (assay): NCI tumour cell line growth inhibition, 48 h
The test system of assay [1] is HCC-2998 colon.
Assay [2] concerns HL-60(TB) leukemia.
Assay [3] has as its system NCI-H460 lung.
The test system of assay [4] is OVCAR-5 ovarian.
Assay [5] relates to SK-MEL-5 melanoma.
For assay [6], the system named is SNB-75 CNS.
In assay [7] the test system is EKVX NSCLC.
In assay [8] the test system is NCI-H23 lung.
Assay [9] relates to SK-MEL-28 melanoma.
The test system of assay [10] is MDA-MB-231 breast.

As for `CN1C[C@@H]2CC(=O)CC[C@@H]2C[C@H]1C#N`, the TGI in [1], in [2], in [3], in [4], in [5] and in assay [6] was more than 100 µM in each case.

In the case of `Cc1cc2c(=O)cc(-c3ccc(Cl)c(Cl)c3)oc2c(C(=O)O)c1C`, the TGI in assay [7], in assay [8], in assay [3], in [4], in [9] and in assay [5] was more than 100 µM throughout. In addition, the TGI in [6] was more than 100 µM.

On to `c1ccc2c(CNCCCN3CCN(CCCNCc4cccc5ccccc45)CC3)cccc2c1`, for which the TGI is 13.1 µM in [7]; 3.45 µM in [2]; 23.6 µM in assay [8]; 2.81 µM in assay [3]; 5.32 µM in assay [4]; 3.06 µM in assay [9]. The TGI in assay [5] was 3.14 µM; in assay [6], 3.15 µM.

With `N#CCC(=O)N/N=C(/C(=O)Nc1ccccc1)C1C(=O)N(c2ccccc2)N=C1N` (configuration not stated), the TGI in assay [7], in assay [1], in assay [2], in assay [8], in assay [3] and in assay [4] was more than 100 µM throughout. In addition, the TGI in assay [9], in [5] and in [6] was more than 100 µM throughout.

Regarding `CN(CC(=O)O)S(=O)(=O)c1ccc(Cl)cc1`, the TGI in assay [7], in assay [1], in [2], in assay [8], in assay [3] and in assay [4] was more than 100 µM in each case. The TGI in assay [9], in assay [5] and in assay [6] was more than 100 µM in each case.

On to `CC(=O)Nc1ccc(S(=O)(=O)N/N=C/c2cc(I)cc([N+](=O)[O-])c2O)cc1`, for which the TGI in assay [7] was more than 100 µM; in assay [1], more than 100 µM; in [2], more than 100 µM; in [8], 85 µM; in assay [3] it was more than 100 µM; in [4], more than 100 µM. Besides, the TGI is 98.7 µM in [9], more than 100 µM in assay [5] and 91.6 µM in assay [6].

For the compound `Cc1cc2c(=O)cc(-c3ccc(Cl)cc3Cl)oc2c(C(=O)O)c1C`, the TGI in assay [7], in assay [8], in [3], in assay [4], in [9] and in [5] was more than 100 µM throughout. In assay [6], this compound yielded a TGI of more than 100 µM.

For `Cc1ccccc1C(C#N)/C(=N/NC(N)=S)C(=O)Nc1c(C)cccc1C` (configuration not stated), the TGI in [7], in assay [1], in assay [2], in [8], in assay [3] and in assay [4] was more than 100 µM in each case. Further, the TGI in [9], in assay [5] and in assay [6] was more than 100 µM in each case.

Consider `Cc1ccc(S(=O)OC2c3ccccc3Cc3ccccc32)cc1` (configuration not stated), for which the TGI in [7] turned out to be 34.5 µM; in assay [1], 33.8 µM; in assay [2] it was 44 µM; in [8], 33.8 µM; in assay [3], 46.2 µM; in assay [4], 31.7 µM. Also, the TGI in assay [9] came out at 33.8 µM; in assay [5], 37.1 µM; in [6], 34.6 µM.

As for `S=c1sc2sc(=S)sc2s1`, the TGI was more than 100 µM in assay [1]; 23.3 µM in assay [2]; 47.7 µM in [3]; 40.2 µM in assay [4]; more than 100 µM in assay [5]; 82.6 µM in [6].

Turning to `CCOc1ccc(N=C2NC(=O)C(CC(=O)Nc3ccc(Cl)cc3Cl)S2)cc1` (configuration not stated), the TGI in [7], in assay [1], in assay [8], in assay [3], in [4] and in assay [9] was more than 100 µM throughout. For the same compound, the TGI in assay [5] and in assay [6] was more than 100 µM in each case.

Take `CNC(=O)N(CCCC(NC(C)=O)C(=O)NCc1ccccc1)Cc1ccccc1` (configuration not stated): the TGI in assay [7], in [1], in assay [8], in assay [3], in assay [4] and in [9] was more than 100 µM in each case. Besides, the TGI in [5] and in [6] was more than 100 µM in each case.

For the compound `Cc1ccc(NC(=O)CC2SC(=Nc3cccc(Cl)c3C)NC2=O)cc1` (configuration not stated), the TGI in assay [7] was more than 100 µM; in assay [1] it was more than 100 µM; in assay [8], 95.3 µM; in [3], more than 100 µM; in [4] it was more than 100 µM; in assay [9], more than 100 µM. For the same compound, the TGI was 96.5 µM in [5] and more than 100 µM in assay [6].

With `CC(=O)NS(=O)(=O)c1ccc(-n2nc(-c3ccccc3)cc2-c2cc(O)ccc2O)cc1`, the GI50 was more than 100 µM in assay [7]; 61.8 µM in assay [2]; 39.2 µM in [10]; more than 100 µM in [8]; more than 100 µM in assay [3]; more than 100 µM in [4]. Besides, the GI50 in [9] and in assay [5] was more than 100 µM each time. The TGI in [7], in assay [2], in assay [10], in assay [8], in assay [3] and in [4] was more than 100 µM in each case. Also, the TGI in assay [9] and in assay [5] was more than 100 µM each time.

Consider `Cc1cc2c(=O)cc(-c3ccc(C(=O)O)cc3)oc2c(C(N)=O)c1C`, for which the TGI in [7], in assay [1], in [8], in [3], in [4] and in [9] was more than 100 µM in each case. For the same compound, the TGI in [5] and in assay [6] was more than 100 µM throughout.
